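Abbreviation: GI50, concentration required for 50% inhibition of growth. TGI: total growth inhibition.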
How the values were obtained:
Assay in all cases: DTP human tumour cell line panel, 384-well format
[1] = system: UACC-62 melanoma
[2] = system: OVCAR-4 ovarian
[3] = system: SF-295 CNS
[4] = system: HOP-92 NSCLC
[5] = system: CCRF-CEM leukemia
[6] = system: A549 NSCLC
[7] = system: MDA-MB-435 melanoma
[8] = system: IGROV1 ovarian
[9] = system: HCT-15 colon
[10] = system: COLO 205 colon
[11] = system: MALME-3M melanoma
[12] = system: LOX IMVI melanoma
[13] = system: UO-31 renal
[14] = system: A498 renal
[15] = system: DU-145 prostate
[16] = system: NCI-H226 lung
[17] = system: HS 578T breast
[18] = system: HL-60(TB) leukemia
[19] = system: RXF 393 renal
[20] = system: SF-539 CNS
[21] = system: T-47D breast
[22] = system: NCI/ADR-RES ovarian
[23] = system: SN12C renal
[24] = system: ACHN renal
[25] = system: UACC-257 melanoma
[26] = system: NCI-H322M lung
[27] = system: K-562 leukemia
[28] = system: TK-10 renal
[29] = system: MDA-MB-468 breast
[30] = system: HT29 colon
[31] = system: SW-620 colon
[32] = system: SNB-19 CNS
[33] = system: OVCAR-5 ovarian
[34] = system: NCI-H522 lung
[35] = system: SK-MEL-28 melanoma
[36] = system: KM12 colon
[37] = system: PC-3 prostate
[38] = system: OVCAR-3 ovarian
[39] = system: CAKI-1 renal
[40] = system: U251 glioblastoma
[41] = system: MOLT-4 leukemia
[42] = system: SK-MEL-5 melanoma
[43] = system: BT-549 breast
[44] = system: SK-OV-3 ovarian
[45] = system: HCT-116 colon
[46] = system: M14 melanoma
[47] = system: HOP-62 NSCLC
[48] = system: EKVX NSCLC
[49] = system: NCI-H460 NSCLC
[50] = system: MDA-MB-231 breast
[51] = system: SNB-75 CNS
[52] = system: SF-268 CNS
[53] = system: RPMI-8226 leukemia
[54] = system: HCC-2998 colon
[55] = system: NCI-H23 lung
[56] = system: MCF7 breast
[57] = system: 786-0 renal
[58] = system: OVCAR-8 ovarian

O=C(Nc1ccc(-c2ccnc(Nc3ccc(N4CCOCC4)cc3)n2)cc1)C1CCCN1 (stereo unspecified)
GI50 [1]: 3.1 µM | TGI [1]: 16.8 µM | GI50 [2]: 14.5 µM | TGI [2]: 28.7 µM | GI50 [3]: 7.63 µM | TGI [3]: 21.3 µM | GI50 [4]: 4.9 µM | TGI [4]: 20.2 µM | GI50 [5]: 1.79 µM | TGI [5]: 10.1 µM | GI50 [6]: 4.69 µM | TGI [6]: 17.8 µM | GI50 [7]: 7.37 µM | TGI [7]: 19.8 µM | GI50 [8]: 3.52 µM | TGI [8]: 16.7 µM | GI50 [9]: 1.25 µM | TGI [9]: 15 µM | GI50 [10]: 2.68 µM | TGI [10]: 17.4 µM | GI50 [11]: 3.88 µM | TGI [11]: 15.4 µM | GI50 [12]: 1.74 µM | TGI [12]: 7.69 µM | GI50 [13]: 3.96 µM | TGI [13]: 15.8 µM | GI50 [14]: 6.48 µM | TGI [14]: 18.9 µM | GI50 [15]: 4.54 µM | TGI [15]: 15.4 µM | GI50 [16]: 1.24 µM | TGI [16]: 10.6 µM | GI50 [17]: 4.67 µM | TGI [17]: 16.7 µM | GI50 [18]: 1.56 µM | TGI [18]: 3.22 µM | GI50 [19]: 1.6 µM | TGI [19]: 12.1 µM | GI50 [20]: 3.89 µM | TGI [20]: 15.2 µM | GI50 [21]: 5.28 µM | TGI [21]: 15.8 µM | GI50 [22]: 7.15 µM | TGI [22]: 21.9 µM | GI50 [23]: 3.6 µM | TGI [23]: 17 µM | GI50 [24]: 4.76 µM | TGI [24]: 17.6 µM | GI50 [25]: 2.46 µM | TGI [25]: 5.49 µM | GI50 [26]: 10.4 µM | TGI [26]: 22.8 µM | GI50 [27]: 1.39 µM | TGI [27]: 10.9 µM | GI50 [28]: 2.78 µM | TGI [28]: 19.2 µM | GI50 [29]: 2.02 µM | TGI [29]: 8.28 µM | GI50 [30]: 2.22 µM | TGI [30]: 10.8 µM | GI50 [31]: 5.25 µM | TGI [31]: 16 µM | GI50 [32]: 11.4 µM | TGI [32]: 26.6 µM | GI50 [33]: 12.4 µM | TGI [33]: 25.6 µM | GI50 [34]: 2.88 µM | TGI [34]: 6.72 µM | GI50 [35]: 7.45 µM | TGI [35]: 20.5 µM | GI50 [36]: 8 µM | TGI [36]: 21.1 µM | GI50 [37]: 5.86 µM | TGI [37]: 19.7 µM | GI50 [38]: 12.8 µM | TGI [38]: 26.2 µM | GI50 [39]: 4.41 µM | TGI [39]: 15.6 µM | GI50 [40]: 3.9 µM | TGI [40]: 17 µM | GI50 [41]: 0.439 µM | TGI [41]: 1.56 µM | GI50 [42]: 0.687 µM | TGI [42]: 14.2 µM | GI50 [43]: 3.78 µM | TGI [43]: 14.1 µM | GI50 [44]: 3.29 µM | TGI [44]: 16.5 µM | GI50 [45]: 1.5 µM | TGI [45]: 11.6 µM | GI50 [46]: 5.63 µM | TGI [46]: 18.2 µM | GI50 [47]: 11.4 µM | TGI [47]: 24.7 µM | GI50 [48]: 11.9 µM | TGI [48]: 24.9 µM | GI50 [49]: 1.65 µM | TGI [49]: 10.9 µM | GI50 [50]: 0.87 µM | TGI [50]: 17.3 µM | GI50 [51]: 4.17 µM | TGI [51]: 15.3 µM | GI50 [52]: 0.204 µM | TGI [52]: 0.857 µM | GI50 [53]: 1.29 µM | TGI [53]: 10.5 µM | GI50 [54]: 2.46 µM | TGI [54]: 8.76 µM | GI50 [55]: 13.7 µM | TGI [55]: 27.1 µM | GI50 [56]: 4.63 µM | TGI [56]: 17.6 µM | GI50 [57]: 2.82 µM | TGI [57]: 11.7 µM | GI50 [58]: 5.11 µM | TGI [58]: 18.1 µM

From PubChem BioAssay (NCI)
